Assay results taken from the supplement of paper PMC9938120.

Columns and labels:
Assay in all cases: drug sensitivity score (DSS3, normalised partial AUC of % inhibition dose-response) (DSS (score)); higher = more sensitive (stronger inhibition of viability); extreme values may be limits of the assay
[1] = system: FMOC02_1 (patient-derived low-grade serous ovarian cancer cells); details: 72 h; library: FO5A; assay format: 2D, 384-well, CellTiter-Glo
Method in brief: (§1)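 The drug sensitivity score is calculated as a partial area under the percent-inhibition dose-response curve, divided by the log of the upper asymptote; higher scores mean more sensitive. For this score, early-passage (under 10) patient-derived ovarian cancer cells were exposed on 384-well flat clear-bottom plates to compounds at five concentrations across a 10,000-fold range for 72 h at 37 °C, 5% CO2. Viability was read with CellTiter-Glo and processed in Breeze.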

[2] = system: FMOC02_2 (patient-derived low-grade serous ovarian cancer cells); details: 72 h; library: FO5A; assay format: 2D, 384-well, CellTiter-Glo
Method in brief: as §1

[3] = system: FMOC02_3 (patient-derived low-grade serous ovarian cancer cells); details: 72 h; library: FO5A; assay format: 2D, 384-well, CellTiter-Glo
Method in brief: as §1

[4] = system: FMOC03 (patient-derived mucinous ovarian cancer cells); details: 72 h; library: FO5A; assay format: 2D, 384-well, CellTiter-Glo
Method in brief: as §1

[5] = system: FMOC04 (patient-derived high-grade serous ovarian cancer cells); details: 72 h; library: FO5A; assay format: 2D, 384-well, CellTiter-Glo
Method in brief: as §1

[6] = system: FMOC06 (patient-derived mucinous ovarian cancer cells); details: 72 h; library: FO5A; assay format: 2D, 384-well, CellTiter-Glo
Method in brief: as §1

[7] = system: FMOC09 (patient-derived high-grade serous ovarian cancer cells); details: 72 h; library: FO5A; assay format: 2D, 384-well, CellTiter-Glo
Method in brief: as §1

[8] = system: FMOC11 (patient-derived high-grade serous ovarian cancer cells); details: 72 h; library: FO5A; assay format: 2D, 384-well, CellTiter-Glo
Method in brief: as §1

[9] = system: FMOC14 (patient-derived high-grade serous ovarian cancer cells); details: 72 h; library: FO5A; assay format: 2D, 384-well, CellTiter-Glo
Method in brief: as §1

[10] = system: FMOC17 (patient-derived low-grade serous ovarian cancer cells); details: 72 h; library: FO5A; assay format: 2D, 384-well, CellTiter-Glo
Method in brief: as §1

[11] = system: FMOC22 (patient-derived mucinous ovarian cancer cells); details: 72 h; library: FO5A; assay format: 2D, 384-well, CellTiter-Glo
Method in brief: as §1

[12] = system: FMOC24 (patient-derived high-grade serous ovarian cancer cells); details: 72 h; library: FO5A; assay format: 2D, 384-well, CellTiter-Glo
Method in brief: as §1

[13] = system: FMOC25_1 (patient-derived low-grade serous ovarian cancer cells); details: 72 h; library: FO4B; assay format: 2D, 384-well, CellTiter-Glo
Method in brief: as §1

[14] = system: FMOC25_2 (patient-derived low-grade serous ovarian cancer cells); details: 72 h; library: FO5A; assay format: 2D, 384-well, CellTiter-Glo
Method in brief: as §1

[15] = system: FMOC27 (patient-derived low-grade serous ovarian cancer cells); details: 72 h; library: FO5A; assay format: 2D, 384-well, CellTiter-Glo
Method in brief: as §1

[16] = system: FMOC28 (patient-derived low-grade serous ovarian cancer cells); details: 72 h; library: FO5A; assay format: 2D, 384-well, CellTiter-Glo
Method in brief: as §1

SMILES | drug sensitivity score [1] | drug sensitivity score [2] | drug sensitivity score [3] | drug sensitivity score [4] | drug sensitivity score [5] | drug sensitivity score [6] | drug sensitivity score [7] | drug sensitivity score [8] | drug sensitivity score [9] | drug sensitivity score [10] | drug sensitivity score [11] | drug sensitivity score [12] | drug sensitivity score [13] | drug sensitivity score [14] | drug sensitivity score [15] | drug sensitivity score [16]
CN(C)C(=N)NC(=N)N [Metformin] | 0 | 0 | 0 | 0 | 0 | 0 | 0 | 0 | 0 | 0 | 0 | 0 | 0 | 0 | 0 | 0
COc1cc2c(N3CCN(C(=O)Nc4ccc(OC(C)C)cc4)CC3)ncnc2cc1OCCCN1CCCCC1 [Tandutinib] | 0 | 0 | 0 | 0 | 0 | 0 | 0 | 0 | 0 | 0 | 0 | 0.75 | 0 | 0 | 0 | 1.4
C[C@H]1C[C@@H]2[C@H]([C@@H](O)C[C@@]3(C)[C@H]2CC[C@]3(O)C(=O)CO)[C@@]2(C)C=CC(=O)C=C12 [Methylprednisolone] | 0 | 0 | 0 | 0 | 0 | 0.1 | 0.1 | 0.6 | 0 | 0 | 0 | 0 | 0 | 0 | 0 | 0
NS(=O)(=O)NCCNc1nonc1/C(=N/O)Nc1ccc(F)c(Br)c1 [Epacadostat] | 0 | 0 | 0.4 | 0 | 0 | 0.1 | 0 | 0 | 0 | 0 | 0 | 0.1 | 0 | 0 | 0 | 0.9
Cc1ccc(C(=O)Nc2ccc(Oc3cc4cnn(C)c4cc3-c3cn[nH]c3)c(F)c2)c(=O)n1-c1ccc(F)cc1 [Merestinib] | 1.1 | 1.9 | 4.4 | 1.3 | 0 | 1.1 | 1.6 | 0 | 0 | 0.3 | 0 | 1.15 | 2.7 | 4 | 0 | 1.4
CC/C(=C(\c1ccccc1)c1ccc(OCCN(C)C)cc1)c1ccccc1 [Tamoxifen] | 6.5 | 3.8 | 4.8 | 4.3 | 3.75 | 5.2 | 1.6 | 3.9 | 4 | 3 | 3.2 | 7.35 | 2.3 | 2.4 | 3.1 | 2.6
C[C@@H](Nc1cc(F)cc(F)c1)c1cc(C(=O)N(C)C)cc2c(=O)cc(N3CCOCC3)oc12 [AZD-8186] | 1.5 | 2.6 | 3.3 | 1.6 | 0.75 | 3 | 2.4 | 1.8 | 0 | 4.9 | 0 | 0 | 1.5 | 2.1 | 5.3 | 1.6
Cc1c(N)nc([C@H](CC(N)=O)NC[C@H](N)C(N)=O)nc1C(=O)N[C@H](C(=O)N[C@H](C)[C@@H](O)[C@H](C)C(=O)N[C@H](C(=O)NCCc1nc(-c2nc(C(=O)NCCC[S+](C)C)cs2)cs1)[C@@H](C)O)[C@@H](OC1OC(CO)C(O)C(O)C1OC1OC(CO)C(O)C(OC(N)=O)C1O)c1cnc[nH]1 (stereo partly drawn) [Bleomycin] | 3.1 | 4.3 | 8.8 | 0.7 | 0 | 3.1 | 3.2 | 3.4 | 0.1 | 3.4 | 0.8 | 5.65 | 9 | 3.2 | 2.4 | 2.9
CS(=O)(=O)CCNCc1ccc(-c2ccc3ncnc(Nc4ccc(OCc5cccc(F)c5)c(Cl)c4)c3c2)o1 [Lapatinib] | 5.4 | 6.9 | 4.6 | 5.3 | 0 | 1 | 2.9 | 3.3 | 0.5 | 3 | 0 | 0.05 | 3.6 | 3.7 | 4.3 | 4
CC(O)(CS(=O)(=O)c1ccc(F)cc1)C(=O)Nc1ccc(C#N)c(C(F)(F)F)c1 (stereo not drawn) [Bicalutamide] | 0.1 | 0 | 0 | 0 | 0 | 1.1 | 0 | 0 | 0 | 0.9 | 0 | 0.85 | 0 | 0 | 0 | 0
CN1CC[C@@H](NC(=O)Nc2ccc(C#N)cc2)C[C@@H]1c1nc2ccccc2[nH]1 [Glasdegib] | 0 | 0.4 | 0 | 0 | 0 | 0 | 0 | 0 | 0 | 0 | 0 | 2.75 | 0.1 | 5.2 | 0 | 3.7
CNC(=O)[C@@H](NC(=O)[C@H](CC(C)C)[C@H](O)C(=O)NO)C(C)(C)C [Marimastat] | 0.9 | 0 | 0 | 0 | 0 | 0 | 0.1 | 0.4 | 0 | 0 | 0 | 0 | 0.6 | 3.6 | 0 | 0
CCNc1nc(Nc2cc(F)c(C(=O)N3CCOCC3)cc2OC)ncc1C(F)(F)F [GNE-7915] | 0 | 0 | 1 | 0 | 0 | 0 | 0 | 0 | 0 | 0 | 0 | 0 | 0 | 0 | 0 | 2
CN(C)CCOc1ccc(/C(=C(/CCCl)c2ccccc2)c2ccccc2)cc1 [Toremifene] | 6 | 5.3 | 7.1 | 5.3 | 4 | 7.4 | 3.8 | 4.3 | 5.2 | 3.3 | 5.3 | 7 | 2.2 | 2.2 | 1.9 | 2.4
CN1CCN(c2nc(C3=C(c4c[nH]c5ccccc45)C(=O)NC3=O)c3ccccc3n2)CC1 [Sotrastaurin] | 3 | 4.3 | 9.9 | 0 | 0 | 0 | 0 | 2.1 | 0 | 3.9 | 0 | 1.85 | 0 | 0 | 0 | 0
CC[C@@H]1C(=O)OC[C@@H]1Cc1cncn1C [Pilocarpine] | 0 | 0.3 | 0 | 0 | 0 | 0 | 0 | 0 | 0 | 0 | 0 | 2.65 | 0 | 0 | 0 | 0
CC[C@H](CO)Nc1nc(NCc2ccccc2)c2ncn(C(C)C)c2n1 [Seliciclib] | 4.1 | 4.3 | 3.5 | 1.5 | 0.1 | 0.1 | 0 | 0 | 1.5 | 1.4 | 0 | 1.35 | 0.9 | 2.1 | 0 | 1.2
Cn1ncc(Cl)c1-c1cc(C(=O)N[C@H](CN)Cc2cccc(F)c2)sc1Cl [Afuresertib] | 4.7 | 6.6 | 4.4 | 0 | 1.65 | 2.9 | 1 | 0.2 | 3.2 | 3 | 0 | 1.3 | 2.9 | 4.3 | 5.4 | 3.8
C/C(=C\c1csc(C)n1)[C@@H]1C[C@@H]2O[C@]2(C)CCC[C@H](C)[C@H](O)[C@@H](C)C(=O)C(C)(C)[C@@H](O)CC(=O)N1 [Ixabepilone] | 4.1 | 1.7 | 2.6 | 3 | 1.85 | 2.7 | 1.7 | 3.1 | 0 | 4.4 | 2.3 | 0 | 1.1 | 2.5 | 0.9 | 0
COc1cc2ncnc(Oc3cccc(NC(=O)Nc4cc(C(C)(C)C(F)(F)F)on4)c3)c2cc1OC | 4 | 6.6 | 4.4 | 0 | 0 | 0.3 | 1.3 | 3.3 | 0.3 | 0 | 0 | 0 | 0 | 1.1 | 0 | 0
CC(C)(O)CC(=O)NCCn1ccc2ncnc(Nc3ccc(Oc4cccc(C(F)(F)F)c4)c(Cl)c3)c21 [TAK-285] | 6.2 | 8.6 | 5.3 | 5.1 | 0 | 1.3 | 3.7 | 2.7 | 1 | 4.5 | 0 | 0.9 | 5 | 4.8 | 4.3 | 2.4
OC[C@H]1O[C@@H](n2cnc3c2N=CNC[C@H]3O)C[C@@H]1O [Pentostatin] | 0 | 0 | 0 | 0 | 0 | 0 | 0 | 0 | 0 | 0 | 0 | 0 | 0 | 0 | 0 | 0
CCn1c(-c2nonc2N)nc2cnc(Oc3cccc(NC(=O)c4ccc(OCCN5CCOCC5)cc4)c3)cc21 | 4.8 | 1.6 | 6.3 | 0.4 | 0.6 | 1.3 | 2.3 | 3.7 | 2.2 | 2 | 1.7 | 2.3 | 0 | 3.8 | 2.9 | 0.4
